# ChEMBL document CHEMBL3044530, “A simple synthesis of trans-3,4,5-trimethoxycinnamamides and evaluation of their biologic activity” (2013)
# Calls of active or inactive are those of the source. The rule behind the calls is not given here.
# Columns and labels:
# Type in all cases: functional
# Mus musculus = experiment: Antinarcotic activity in morphine-dependent C57BL/6 Mus musculus (mouse) assessed as decrease in naloxane-induced jumping frquency at 20 mg/kg, ip administered QD at 30 min prior to morphine-injection for 7 days followed by naloxane-challenge at 6 hr after last morphine-injection relative to control
# [1] = tested on: Radical scavenging activity; experiment: Antioxidant activity assessed as DPPH radical scavenging activity at 1 mM after 25 min by spectrophotometric analysis
# Cortical neurone = experiment: Neuroprotective activity in ICR Mus musculus (mouse) cortical neurons assessed as protection against glutamate-induced toxicity at 5 to 20 uM after 24 hr by LDH assay
Structure (SMILES),Activity (Mus musculus),Activity (Mus musculus; route intraperitoneal) [%],Activity [1] [%],Activity (Cortical neurone)
COc1cc(/C=C/C(=O)O)cc(OC)c1OC,Active,,,
COc1cc(/C=C/C(=O)N2CCN(C(=O)/C=C/c3cc(OC)c(OC)c(OC)c3)CC2)cc(OC)c1OC,,80,,
COc1cc(/C=C/C(=O)NCCO)cc(OC)c1OC,,80,> 20,Active
COc1cc(/C=C/C(=O)N2CCSCC2)cc(OC)c1OC,,80,> 20,Active
COc1cc(/C=C/C(=O)N2CCN(C(=O)c3ccccc3)CC2)cc(OC)c1OC,,80,> 20,Active
COc1cc(/C=C/C(=O)NCCCN2CCCC2=O)cc(OC)c1OC,,80,> 20,
COc1cc(/C=C/C(=O)N2CCOCC2)cc(OC)c1OC,,80,> 20,
